Assay results: patent publication US7524646B2 (priority 2001, dated 2009)

Columns and labels:
[1] = tested on: strain PS2449 (mutated gene ileS ala11, plasmid pTLH33); format: cell-based, E. coli; conditions: 0.1 ml of 25 mM amino acid in central well, 37 degrees, 24 hours
Method: (§1) Strains PS2306 and PS2449 are tested for their sensitivity to artificial amino acids which present a steric resemblance to isoleucine. The cells are cultivated in MS mineral medium, succinate (0.2%), arabinose (0.2%) for 24 h at 37 degrees centigrade and diluted at 1/250in MS mineral medium. 0.5 ml of this cell suspension are spread on a Petri dish containing 25 ml of MS medium supplemented with succinate (0.2%) and arabinose (0.2%). A well is then prepared in the middle of the dish and filled with 0.1 ml of an amino acid solution: • 1) 25 mM S-methyl cysteine • 2) 25 mM homocysteine • 3) 25 mM o-methyl-L-serine • 4) 25 mM Norleucine • 5) 25 mM Norvaline
(§2) The Petri dishes are then incubated at 37 degrees centigrade for 24 hours and the appearance of a zone of inhibition around the well is recorded. The diameters of the zones of attenuated growth are measured as follows: […]

[2] = tested on: strain PS2306 (wild type ileS gene, plasmid pVDC433); format: cell-based, E. coli; conditions: 0.1 ml of 25 mM amino acid in central well, 37 degrees, 24 hours
Method: as §1, §2

[^3H]Thr-tRNAval = Deacylation of mischarged Thr-tRNAVal by ValRS enzymes; format: biochemical, E. coli; conditions: 2 nM enzyme, room temperature
Method: FIG. 5B: Histogram representation of the inhibition zone diameters of DvalS::kanR strains harboring each of the ValRS editing mutants on plasmid in response to exogenous Abu. Effects range from mild to severe. Histogram representation of the percentage of mischarged Thr-tRNAVal remaining after incubation with 2 nM enzyme for 15 minutes at room temperature. Both show a distinct range in the severity of editing defects caused by these point mutations. Taken together this illustrates a correlation between the ability of the mutant enzyme to deacylate mischarged amino acids from tRNAVal in vitro and the degree of in vivo toxicity.
(§3) Misacylation of Thr onto tRNAval was performed in the same conditions except 5.86 μM [^3H]Thr was substituted forVal in the reaction. To test deacylation rates for these enzymes it was necessary to generate [^3H]Thr-tRNAval. […] Enzyme was incubated with 2.5 μM tRNAval and 45 uM [^3H]Thr, incubated at 37 C. for 45 minutes, extracted twice in phenol:chloroform, and ethanol precipitated. Pellet was dissolved in 100 μL sterile H2O and scintillation counting was used to determine the success of the reaction. Deacylation reactions, done in triplicate for each enzyme, were performed in 155 mM Tris-HCl (pH 7.5), 100 μg/ml BSA, 10 mM MgCl2. At room temperature 2 nM enzyme was combined with [^3H]Thr-tRNAval, at 3, 6, 9, 16, and 30 minutes aliquots (9 μL) of the reaction mixture were precipitated with tricholoracetic acid, and the amount of misaminoacylated [^3H]Thr-tRNAval remaining in the sample was determined by scintillation counting. A no enzyme control reaction was included to provide reference point.

tRNA^Val = assay: Misacylation of tRNAVal with Thr; format: biochemical, E. coli; conditions: pH 7.5, 37° C.
Method: FIG. 2B: A graph showing misaminoacylation of tRNA^Val with Thr by the T222P mutant enzyme at pH 7.5 and 37° C. The wild-type (WT) and mutant alleles were cloned under the control of a PBAD promoter (30). The enzymes were partially purified from a laboratory strain lacking the chromosomal copy of the valS gene (ΔvalS::kan+). The purification and aminoacylation procedures were adapted from Hendrickson et al. (31). (Main panel) Misaminoacylation of tRNA^Val with Thr by the two enzymes. (Inset) Aminoacylation of tRNA^Val with Val by the two enzymes.
Aminoaclyation Assay, Misacylation, and Deacylation: Aminoacylation assays were performed at 37 C. in a 100 uL volume containing buffer (20 mM HEPES, 0.1 mM EDTA disodium salt, 0.15M NH4Cl, 10 ug/mL BSA pH 7.5), […] MgCl2, 0.7 μM [^3H]Val, 20 μM cold Val, 2 μM tRNAval (Sigma) and 20 nM ValRS enzyme (adapted from Hendrickson et al. 2000). Aliquots (10 μL) of the reaction mixture were precipitated with tricholoracetic acid, and the level of aminoacylation of the tRNA was determined by scintillation counting.
as §3

Molecule | diameters of the zones of attenuated growth [1] | diameters of the zones of attenuated growth [2] | deacylation of Thr-tRNA^Val in vitro ([^3H]Thr-tRNAval) | misacylation of tRNA^Val with Thr (tRNA^Val)
CSC[C@H](N)C(=O)O [S-methyl-L-cysteine] | 3.0 cm | 1.3 cm | – | –
COC[C@H](N)C(=O)O [O-methyl-L-serine] | 5.6 cm | 2.2 cm | – | –
CCCC[C@H](N)C(=O)O [Norleucin, Norleucine] | 3.4 cm | 2.9 cm | – | –
N[C@@H](CCS)C(=O)O [Homocysteine] | 2.9 cm | 2.1 cm | – | –
CCC[C@H](N)C(=O)O [Norvaline] | 8.0 cm | 3.7 cm | – | –
K277Q: ValRS of E. coli with single substitution K277Q in the editing domain (protein, UniProt P07118 1-951, looked up, variant K277Q) Valine--tRNA ligase: MEKTYNPQDIEQPLYEHWEKQGYFKPNGDESQESFCIMIPPPNVTGSLHMGHAFQQTIMDTMIRYQRMQGKNTLWQVGTDHAGIATQMVVERKIAAEEGKTRHDYGREAFIDKIWEWKAESGGTITRQMRRLGNSVDWERERFTMDEGLSNAVKEVFVRLYKEDLIYRGKRLVNWDPKLRTAISDLEVENRESKGSMWHIRYPLADGAKTADGKDYLVVATTRPETLLGDTGVAVNPEDPRYKDLIGKYVILPLVNRRIPIVGDEHADMEKGTGCVQITPAHDFNDYEVGKRHALPMINILTFDGDIRESAQVFDTKGNESDVYSSEIPAEFQKLERFAARKAVVAAVDALGLLEEIKPHDLTVPYGDRGGVVIEPMLTDQWYVRADVLAKPAVEAVENGDIQFVPKQYENMYFSWMRDIQDWCISRQLWWGHRIPAWYDEAGNVYVGRNEDEVRKENNLGADVVLRQDEDVLDTWFSSALWTFSTLGWPENTDALRQFHPTSVMVSGFDIIFFWIARMIMMTMHFIKDENGKPQVPFHTVYMTGLIRDDEGQKMSKSKGNVIDPLDMVDGISLPELLEKRTGNMMQPQLADKIRKRTEKQFPNGIEPHGTDALRFTLAALASTGRDINWDMKRLEGYRNFCNKLWNASRFVLMNTEGQDCGFNGGEMTLSLADRWILAEFNQTIKAYREALDSFRFDIAAGILYEFTWNQFCDWYLELTKPVMNGGTEAELRGTRHTLVTVLEGLLRLAHPIIPFITETIWQRVKVLCGITADTIMLQPFPQYDASQVDEAALADTEWLKQAIVAVRNIRAEMNIAPGKPLELLLRGCSADAERRVNENRGFLQTLARLESITVLPADDKGPVSVTKIIDGAELLIPMAGLINKEDELARLAKEVAKIEGEISRIENKLANEGFVARAPEAVIAKEREKLEGYAEAKAKLIEQQAVIAAL | – | – | most severe defects | high levels of mischarged Thr-tRNA^Val
wild-type enzyme: wild-type valyl-tRNA synthetase (ValRS) of E. coli (protein, UniProt P07118 1-951, looked up) Valine--tRNA ligase: MEKTYNPQDIEQPLYEHWEKQGYFKPNGDESQESFCIMIPPPNVTGSLHMGHAFQQTIMDTMIRYQRMQGKNTLWQVGTDHAGIATQMVVERKIAAEEGKTRHDYGREAFIDKIWEWKAESGGTITRQMRRLGNSVDWERERFTMDEGLSNAVKEVFVRLYKEDLIYRGKRLVNWDPKLRTAISDLEVENRESKGSMWHIRYPLADGAKTADGKDYLVVATTRPETLLGDTGVAVNPEDPRYKDLIGKYVILPLVNRRIPIVGDEHADMEKGTGCVKITPAHDFNDYEVGKRHALPMINILTFDGDIRESAQVFDTKGNESDVYSSEIPAEFQKLERFAARKAVVAAVDALGLLEEIKPHDLTVPYGDRGGVVIEPMLTDQWYVRADVLAKPAVEAVENGDIQFVPKQYENMYFSWMRDIQDWCISRQLWWGHRIPAWYDEAGNVYVGRNEDEVRKENNLGADVVLRQDEDVLDTWFSSALWTFSTLGWPENTDALRQFHPTSVMVSGFDIIFFWIARMIMMTMHFIKDENGKPQVPFHTVYMTGLIRDDEGQKMSKSKGNVIDPLDMVDGISLPELLEKRTGNMMQPQLADKIRKRTEKQFPNGIEPHGTDALRFTLAALASTGRDINWDMKRLEGYRNFCNKLWNASRFVLMNTEGQDCGFNGGEMTLSLADRWILAEFNQTIKAYREALDSFRFDIAAGILYEFTWNQFCDWYLELTKPVMNGGTEAELRGTRHTLVTVLEGLLRLAHPIIPFITETIWQRVKVLCGITADTIMLQPFPQYDASQVDEAALADTEWLKQAIVAVRNIRAEMNIAPGKPLELLLRGCSADAERRVNENRGFLQTLARLESITVLPADDKGPVSVTKIIDGAELLIPMAGLINKEDELARLAKEVAKIEGEISRIENKLANEGFVARAPEAVIAKEREKLEGYAEAKAKLIEQQAVIAAL | – | – | – | no detectable mischarged tRNA^Val
D230N: ValRS of E. coli with single substitution D230N in the editing domain (protein, UniProt P07118 1-951, looked up, variant D230N) Valine--tRNA ligase: MEKTYNPQDIEQPLYEHWEKQGYFKPNGDESQESFCIMIPPPNVTGSLHMGHAFQQTIMDTMIRYQRMQGKNTLWQVGTDHAGIATQMVVERKIAAEEGKTRHDYGREAFIDKIWEWKAESGGTITRQMRRLGNSVDWERERFTMDEGLSNAVKEVFVRLYKEDLIYRGKRLVNWDPKLRTAISDLEVENRESKGSMWHIRYPLADGAKTADGKDYLVVATTRPETLLGNTGVAVNPEDPRYKDLIGKYVILPLVNRRIPIVGDEHADMEKGTGCVKITPAHDFNDYEVGKRHALPMINILTFDGDIRESAQVFDTKGNESDVYSSEIPAEFQKLERFAARKAVVAAVDALGLLEEIKPHDLTVPYGDRGGVVIEPMLTDQWYVRADVLAKPAVEAVENGDIQFVPKQYENMYFSWMRDIQDWCISRQLWWGHRIPAWYDEAGNVYVGRNEDEVRKENNLGADVVLRQDEDVLDTWFSSALWTFSTLGWPENTDALRQFHPTSVMVSGFDIIFFWIARMIMMTMHFIKDENGKPQVPFHTVYMTGLIRDDEGQKMSKSKGNVIDPLDMVDGISLPELLEKRTGNMMQPQLADKIRKRTEKQFPNGIEPHGTDALRFTLAALASTGRDINWDMKRLEGYRNFCNKLWNASRFVLMNTEGQDCGFNGGEMTLSLADRWILAEFNQTIKAYREALDSFRFDIAAGILYEFTWNQFCDWYLELTKPVMNGGTEAELRGTRHTLVTVLEGLLRLAHPIIPFITETIWQRVKVLCGITADTIMLQPFPQYDASQVDEAALADTEWLKQAIVAVRNIRAEMNIAPGKPLELLLRGCSADAERRVNENRGFLQTLARLESITVLPADDKGPVSVTKIIDGAELLIPMAGLINKEDELARLAKEVAKIEGEISRIENKLANEGFVARAPEAVIAKEREKLEGYAEAKAKLIEQQAVIAAL | – | – | slowed rate of deacylation | low levels of mischarging
